Measurements taken from the NIST ThermoML archive (doi:10.1007/s10765-008-0503-0).

Settings: Liquid; for viscosity: Vibrating wire viscometry; for mass density: vibrating wire

COCOC [dimethoxymethane]
Settings	mass density [kg/m3]	viscosity [mPa·s]
243.15 K, 100 kPa	917.773	0.6298
243.15 K, 4400 kPa	921.19	0.651
243.15 K, 9420 kPa	924.889	0.6752
243.15 K, 14450 kPa	928.455	0.7003
243.15 K, 19440 kPa	931.885	0.7258
253.15 K, 100 kPa	905.693	0.5389
253.15 K, 4420 kPa	909.439	0.556
253.15 K, 9410 kPa	913.399	0.5769
253.15 K, 14450 kPa	917.473	0.5975
253.15 K, 19440 kPa	921.171	0.6191
263.15 K, 100 kPa	893.705	0.4697
263.15 K, 4440 kPa	897.611	0.4857
263.15 K, 9440 kPa	901.958	0.5039
263.15 K, 14470 kPa	906.179	0.5215
263.15 K, 19470 kPa	910.144	0.5406
273.15 K, 100 kPa	881.433	0.4145
273.15 K, 4440 kPa	885.755	0.4285
273.15 K, 9440 kPa	890.38	0.4446
273.15 K, 14480 kPa	894.826	0.4615
273.15 K, 19540 kPa	899.081	0.4783
283.15 K, 100 kPa	869.282	0.3685
283.15 K, 4450 kPa	873.902	0.3818
283.15 K, 9430 kPa	878.977	0.3964
283.15 K, 14490 kPa	883.736	0.4114
283.15 K, 19550 kPa	888.33	0.4265
293.15 K, 100 kPa	857.043	0.3303
293.15 K, 4410 kPa	862.006	0.342
293.15 K, 9460 kPa	867.484	0.3559
293.15 K, 14490 kPa	872.625	0.3692
293.15 K, 19550 kPa	877.53	0.3832
303.15 K, 100 kPa	844.252	0.2963
303.15 K, 4450 kPa	849.702	0.3076
303.15 K, 9450 kPa	855.591	0.3199
303.15 K, 14490 kPa	861.24	0.3323
303.15 K, 19550 kPa	866.565	0.345
313.15 K, 160 kPa	831.685	0.2682
313.15 K, 4440 kPa	837.579	0.2785
313.15 K, 9420 kPa	843.933	0.2905
313.15 K, 14450 kPa	849.923	0.3022
313.15 K, 19440 kPa	855.5	0.3137
323.15 K, 190 kPa	818.682	0.2436
323.15 K, 4390 kPa	824.99	0.2532
323.15 K, 9420 kPa	832.095	0.2644
323.15 K, 14460 kPa	838.549	0.2758
323.15 K, 19490 kPa	844.585	0.2866
333.15 K, 210 kPa	805.334	0.2202
333.15 K, 4390 kPa	812.279	0.229
333.15 K, 9410 kPa	819.852	0.2401
333.15 K, 14450 kPa	826.872	0.2504
333.15 K, 19450 kPa	833.322	0.261
343.15 K, 280 kPa	791.705	0.2009
343.15 K, 4430 kPa	799.263	0.2096
343.15 K, 9430 kPa	807.432	0.2203
343.15 K, 14460 kPa	815.084	0.2301
343.15 K, 19460 kPa	822.037	0.24
353.15 K, 360 kPa	777.688	0.1837
353.15 K, 4370 kPa	785.794	0.1922
353.15 K, 9400 kPa	794.895	0.2024
353.15 K, 14450 kPa	803.147	0.2123
353.15 K, 19430 kPa	810.634	0.2217
363.15 K, 430 kPa	763.12	0.1688
363.15 K, 4400 kPa	772.066	0.1767
363.15 K, 9410 kPa	782.127	0.1868
363.15 K, 14450 kPa	791.118	0.1963
363.15 K, 19460 kPa	799.153	0.2059
373.15 K, 550 kPa	748.032	0.1551
373.15 K, 4370 kPa	757.736	0.1628
373.15 K, 9400 kPa	768.901	0.1728
373.15 K, 14450 kPa	778.77	0.1822
373.15 K, 19480 kPa	787.494	0.1914

COCCOC [1,2-dimethoxyethane]
Settings	mass density [kg/m3]	viscosity [mPa·s]
243.15 K, 100 kPa	919.667	0.8856
243.15 K, 4540 kPa	923.045	0.9166
243.15 K, 9560 kPa	926.586	0.9502
243.15 K, 14590 kPa	928.901	0.9855
243.15 K, 19470 kPa	931.879	1.017
253.15 K, 100 kPa	909.614	0.7464
253.15 K, 4550 kPa	912.595	0.7729
253.15 K, 9550 kPa	915.73	0.7995
253.15 K, 14450 kPa	917.844	0.8296
253.15 K, 19430 kPa	921.699	0.858
263.15 K, 100 kPa	899.206	0.642
263.15 K, 4560 kPa	901.757	0.6618
263.15 K, 9590 kPa	904.482	0.6849
263.15 K, 14590 kPa	908.179	0.7095
263.15 K, 19460 kPa	911.986	0.7337
273.15 K, 100 kPa	887.607	0.5585
273.15 K, 4560 kPa	890.738	0.5759
273.15 K, 9590 kPa	894.412	0.5961
273.15 K, 14550 kPa	898.792	0.6173
273.15 K, 19480 kPa	903.248	0.6392
283.15 K, 100 kPa	876.889	0.4904
283.15 K, 4550 kPa	880.455	0.5056
283.15 K, 9570 kPa	884.621	0.525
283.15 K, 14460 kPa	889.18	0.5458
283.15 K, 19450 kPa	892.89	0.5619
293.15 K, 100 kPa	866.528	0.4341
293.15 K, 4530 kPa	869.991	0.4492
293.15 K, 9560 kPa	875.037	0.4673
293.15 K, 14460 kPa	879.707	0.485
293.15 K, 19450 kPa	883.646	0.5011
303.15 K, 100 kPa	855.111	0.3896
303.15 K, 4540 kPa	859.667	0.4031
303.15 K, 9500 kPa	865.15	0.4197
303.15 K, 14440 kPa	869.454	0.4334
303.15 K, 19440 kPa	873.398	0.4494
313.15 K, 100 kPa	843.765	0.3512
313.15 K, 4540 kPa	848.633	0.3641
313.15 K, 9500 kPa	854.082	0.3784
313.15 K, 14440 kPa	858.578	0.3922
313.15 K, 19420 kPa	863.033	0.4055
323.15 K, 100 kPa	832.929	0.3189
323.15 K, 4560 kPa	838.334	0.3303
323.15 K, 9530 kPa	843.798	0.3433
323.15 K, 14450 kPa	848.464	0.3562
323.15 K, 19460 kPa	852.959	0.3693
333.15 K, 100 kPa	822.133	0.2903
333.15 K, 4550 kPa	827.195	0.3018
333.15 K, 9570 kPa	833.307	0.3129
333.15 K, 14460 kPa	837.525	0.3256
333.15 K, 19430 kPa	842.805	0.3372
343.15 K, 100 kPa	809.48	0.2653
343.15 K, 4540 kPa	815.487	0.2754
343.15 K, 9560 kPa	821.858	0.2868
343.15 K, 14440 kPa	827.359	0.2985
343.15 K, 19420 kPa	832.794	0.3093
353.15 K, 360 kPa	798.071	0.2437
353.15 K, 4560 kPa	803.982	0.2539
353.15 K, 9570 kPa	810.723	0.2642
353.15 K, 14440 kPa	817.205	0.2754
353.15 K, 19420 kPa	822.843	0.2858
363.15 K, 160 kPa	785.42	0.2233
363.15 K, 4560 kPa	792.463	0.233
363.15 K, 9570 kPa	799.914	0.2438
363.15 K, 14440 kPa	806.21	0.2557
363.15 K, 19420 kPa	812.462	0.2641
373.15 K, 200 kPa	772.627	0.2059
373.15 K, 4560 kPa	780.565	0.2157
373.15 K, 9580 kPa	788.637	0.2263
373.15 K, 14440 kPa	795.752	0.2355
373.15 K, 19420 kPa	802.7	0.2457
